Values quoted from earlier work, collected in patent US4713384A, “Selective method for blocking 5HT2 receptors” (Eli Lilly and Company, priority 1985, dated 1987).

Experiments:
migraine = details: clinical trial, Lance I, Table 1; cited from earlier work
alpha-receptors = details: literature; cited from earlier work
[1] = literature; cited from earlier work
5HT2 = details: Awouters; cited from earlier work
5HT receptor = details: cited from earlier work

CC[C@@H](CO)NC(=O)[C@@H]1C=C2c3cccc4c3c(cn4C)C[C@H]2N(C)C1 [methysergide]
Improvement rate in migraine (migraine): 64% | alpha receptor activity in words (alpha-receptors): little or no action on alpha-receptors | oxytocic action [1]: no oxytocic action | 5HT2 agonist activity and side effects (5HT2): responsible for some of the side effects | 5HT receptor blockade rating (5HT receptor; Berde, most active compound = 1,000): 1,000 | 5HT receptor activity (agonist/antagonist) in words (5HT receptor; literature): 5HT agonists at low concentrations but antagonistic at higher concentrations and partial 5HT agonist in certain blood vessels and very potent 5HT antagonist in the CNS
